Source: US8188127B2, “Microbicidal composition” (Rohm and Haas Company, priority 2007, dated 2012)

How the values were obtained:
Assay type in all cases: cell-based
[1] = tested on: A. niger ATCC # 16404; assay: Microtiter plate MIC / synergy test (Kull synergy index), mold, PDB medium; conditions: for Ca: ppm AI of first component (A) alone (MIC, QA): A. niger; for Ca: MIC of BIOBAN1246 alone: component alone
Source text: (§1) One measure of synergism is the industrially accepted method described by Kull, F. C.; Eisman, P. C.; Sylwestrowicz, H. D. and Mayer, R. L., in Applied Microbiology 9:538-541 (1961), using the ratio determined by the formula: Qa/QA+Qb/QB=Synergy Index (“SI”) wherein: • QA=concentration of compound A (first component) in ppm, acting alone, which produced an end point (MIC of Compound A). • Qa=concentration of compound A in ppm, in the mixture, which produced an end point. • QB=concentration of compound B (second component) in ppm, acting alone, which produced an end point (MIC of Compound B). • Qb=concentration of compound B in ppm, in the mixture, which produced an end point.
(§2) When the sum of Qa/QA and Qb/QB is greater than one, antagonism is indicated. […] The lower the SI, the greater the synergy shown by that particular mixture. The minimum inhibitory concentration (MIC) of a microbicide is the lowest concentration tested under a specific set of conditions that prevents the growth of added microorganisms.
(§3) Synergy tests were conducted using standard microtiter plate assays with media designed for optimal growth of the test microorganism. Minimal salt medium supplemented with 0.2% glucose and 0.1% yeast extract (M9GY medium) was used for testing bacteria; Potato Dextrose Broth (PDB medium) was used for testing yeast and mold. In this method, a wide range of combinations of microbicides was tested by conducting high resolution MIC assays in the presence of various concentrations of MBIT. High resolution MICs were determined by adding varying amounts of microbicide to one column of a microtitre plate and doing subsequent […] dilutions using an automated liquid handling system to obtain a series of endpoints ranging from 2 ppm to 10,000 ppm active ingredient.
(§4) The synergy of the combinations of the present invention was determined against several microorganisms, as described in the Tables below. The bacteria were used at a concentration of about 5×10^6 bacteria per mL and the yeast and mold at 5×10^5 fungi per mL. These microorganisms are representative of natural contaminants in many consumer and industrial applications. […] (yeast and mold) or 30° C. (bacteria).
(§5) In each test, Second Component (B) was MBIT and the First Component (A) was the other commercial microbicide.

[2] = tested on: C. albicans ATCC # 10231; assay: Microtiter plate MIC / synergy test (Kull synergy index), yeast, PDB medium; conditions: for Ca: ppm AI of first component (A) alone (MIC, QA): C. albicans; for Ca: MIC of BIOBAN1246 alone: component alone
Source text: as §1, §2, §3, §4, §5

[3] = tested on: Ps. aeruginosa ATCC # 9027; assay: Microtiter plate MIC / synergy test (Kull synergy index), bacteria, M9GY medium; conditions: for Ca: ppm AI of first component (A) alone (MIC, QA): Ps. aeruginosa; for Ca: MIC of BIOBAN1246 alone: component alone
Protocol: as §2, §3
The bacteria were used at a concentration of about 5×10^6 bacteria per mL and the yeast and mold at 5×10^5 fungi per mL. These microorganisms are representative of natural contaminants in many consumer and industrial applications. […] (yeast and mold) or 30° C. (bacteria).
as §5

[4] = tested on: S. aureus ATCC # 6538; assay: as above; conditions: for Ca: ppm AI of first component (A) alone (MIC, QA): S. aureus; for Ca: MIC of BIOBAN1246 alone: component alone
Source text: as §1, §2, §3, §4, §5

Q: `OCCN1CN(CCO)CN(CCO)C1` [BIOBAN GK, hexahydro-1,3,5-tris(2-hydroxyethyl)-s-triazine] was tested. Which “Ca: ppm AI of first component (A) alone (MIC, QA)” value (“Ca: ppm AI of first component” for short) ([1]; contact time 3 days) did it give?
A: The value was 425 ppm AI.

Q: And the “Ca: ppm AI of first component” value ([1]; contact time 7 days)?
A: Its value is 650 ppm AI.

Q: And the “Ca: ppm AI of first component” value ([2]; contact time 48 hrs)?
A: Its value is 875 ppm AI.

Q: And the “Ca: ppm AI of first component” value ([2]; contact time 72 hrs)?
A: Its value is 875 ppm AI.

Q: And the “Ca: ppm AI of first component” value ([3]; contact time 24 hrs)?
A: Its value is 55 ppm AI.

Q: What about the “Ca: ppm AI of first component” value ([3]; contact time 48 hrs) of the same compound?
A: The value was 55 ppm AI.

Q: What about the “Ca: ppm AI of first component” value ([4]; contact time 24 hrs) of the same compound?
A: Its value is 55 ppm AI.

Q: What about the “Ca: ppm AI of first component” value ([4]; contact time 48 hrs) of the same compound?
A: Its value is 55 ppm AI.

Q: Which results are given for `CCC12COCN1COC2` [BIOBAN1246]?
A: Ca: MIC of BIOBAN1246 alone ([1]; A. niger ATCC # 16404, contact time 3 days): 650 ppm AI; Ca: MIC of BIOBAN1246 alone ([1]; A. niger ATCC # 16404, contact time 7 days): 875 ppm AI; Ca: MIC of BIOBAN1246 alone ([2]; C. albicans ATCC # 10231, contact time 48 hrs): 3000 ppm AI; Ca: MIC of BIOBAN1246 alone ([2]; C. albicans ATCC # 10231, contact time 72 hrs): 4250 ppm AI; Ca: MIC of BIOBAN1246 alone ([3]; Ps. aeruginosa ATCC # 9027, contact time 24 hrs): 100 ppm AI; Ca: MIC of BIOBAN1246 alone ([3]; Ps. aeruginosa ATCC # 9027, contact time 48 hrs): 150 ppm AI; Ca: MIC of BIOBAN1246 alone ([4]; S. aureus ATCC # 6538, contact time 24 hrs): 55 ppm AI; Ca: MIC of BIOBAN1246 alone ([4]; S. aureus ATCC # 6538, contact time 48 hrs): 55 ppm AI

Q: For `CC1(C)COCN1` [BIOBAN 1135, 4,4-dimethyloxazolidine], which “Ca: ppm AI of first component” value ([1]; contact time 3 days) is on record?
A: Its value is 525 ppm AI.

Q: What about the “Ca: ppm AI of first component” value ([1]; contact time 7 days) of the same compound?
A: The value was 875 ppm AI.

Q: And the “Ca: ppm AI of first component” value ([2]; contact time 48 hrs)?
A: Its value is 1100 ppm AI.

Q: What about the “Ca: ppm AI of first component” value ([2]; contact time 72 hrs) of the same compound?
A: The value was 1100 ppm AI.

Q: What about the “Ca: ppm AI of first component” value ([3]; contact time 24 hrs) of the same compound?
A: Its value is 100 ppm AI.

Q: And the “Ca: ppm AI of first component” value ([3]; contact time 48 hrs)?
A: Its value is 100 ppm AI.

Q: What about the “Ca: ppm AI of first component” value ([4]; contact time 24 hrs) of the same compound?
A: The value was 55 ppm AI.

Q: And the “Ca: ppm AI of first component” value ([4]; contact time 48 hrs)?
A: Its value is 55 ppm AI.
